Results from US20230114728A1 (Venatorx Pharmaceuticals, Inc., priority 2019, published 2023).
Converted amounts (≈) assume the structure as drawn.

Columns and labels:
E. coli K12 PBP3 = molecular target: T1, E. coli K12 PBP3 (Escherichia coli, UniProt P0AD68); assay: biochemical; type: binding
T1 construct: made in house
Summary of the method: (§1)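 A. baumannii PBP2 (2.5 μM) and PBP3 (0.2 μM) were run in 25 mM Tris pH 8.0 buffer with Tween 20; E. coli PBP3 (1.5 μM) and N. gonorrhoeae PBP2 ([…]) in 50 mM Hepes pH 8.0 buffer.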

P. aeruginosa PBP3 = molecular target: T2, P. aeruginosa PBP3 (Pseudomonas aeruginosa, UniProt G3XD46); assay: Bocillin-FL fluorescence polarization competition binding assay, P. aeruginosa PBP3; details: fluorescence polarization competition binding assay using Bocillin-FL
T2 construct: made in house
Summary of the method: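 Inhibitor competition with Bocillin-FL for P. aeruginosa PBP3 was followed by fluorescence polarization on a Cytation3 (BioTek) reader, using g-factor 0.96, 490 nm excitation and 520 nm emission. The enzyme was at 0.75 μM and the probe at 0.1 μM in Hepes/NaCl/glycerol buffer, 80 μl per well. FP was recorded immediately after probe addition for up to 60 minutes. Potency was expressed as EC50, the concentration that reduces bound probe by 50%.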

A. baumannii ATCC 19606 = assay: Broth microdilution MIC in CAMHB; type: cell-based; details: Acinetobacter baumannii, ATCC19606; MHB; read-out: Minimum Inhibitory Concentration, A. baumannii ATCC 19606
Summary of the method: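 MIC, read by eye, is the lowest compound concentration giving no bacterial growth after 16-20 h at 37° C. Test compounds are serially diluted 2-fold in CAMHB and seeded with 2-8×10^5 CFU/mL of bacteria taken from a 3-5 h shaking culture, following CLSI methods.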

E. coli 901C = assay: Broth microdilution MIC in CAMHB; type: cell-based; details: Escherichia coli; E. coli 901C (hyper-permeable); MHB; read-out: Minimum Inhibitory Concentration, E. coli 901C
Summary of the method: (§2)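 Standard CLSI-style microdilution in cation-adjusted Mueller Hinton broth, 2-fold dilution series, incubated 16-20 h at 37° C; endpoint was visual absence of growth.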

E. coli AG100A = assay: Broth microdilution MIC in CAMHB; type: cell-based; details: Escherichia coli, read-out: Minimum Inhibitory Concentration, E. coli AG100A
Summary of the method: as §2

E. coli AG100 = assay: Broth microdilution MIC in CAMHB; type: cell-based; details: Escherichia coli; E. coli AG100 (wild-type parent); MHB; read-out: Minimum Inhibitory Concentration, E. coli AG100
Summary of the method: as §2

E. coli ATCC 25922 = assay: Broth microdilution MIC in CAMHB; type: cell-based; details: Escherichia coli, ATCC25922; E. coli ATCC 25922; MHB; read-out: Minimum Inhibitory Concentration, E. coli 25922
Summary of the method: as §2

E. coli D22 = assay: Broth microdilution MIC in CAMHB; type: cell-based; details: Escherichia coli; E. coli D22 (hyper-permeable); MHB; read-out: Minimum Inhibitory Concentration, E. coli D22
Summary of the method: as §2

[1] = tested on: K. pneumoniae 848844 producing SHV-11 and KPC-2; assay: Broth microdilution MIC in CAMHB; type: cell-based; details: Klebsiella pneumoniae, read-out: Minimum Inhibitory Concentration, K. pneumoniae 848844
Summary of the method: as §2

[2] = tested on: K. pneumoniae SI-117 producing VIM-1; assay: Broth microdilution MIC in CAMHB; type: cell-based; details: Klebsiella pneumoniae, read-out: Minimum Inhibitory Concentration, K. pneumoniae SI-117
Summary of the method: as §2

[3] = tested on: K. pneumoniae UMM producing SHV-5 and KPC-2; assay: Broth microdilution MIC in CAMHB; type: cell-based; details: Klebsiella pneumoniae, read-out: Minimum Inhibitory Concentration, K. pneumoniae UMM
Summary of the method: as §2

[4] = tested on: P. aeruginosa (ΔmexAB-oprM); assay: Broth microdilution MIC in CAMHB; type: cell-based; details: Pseudomonas aeruginosa, read-out: Minimum Inhibitory Concentration, P. aeruginosa ΔmexAB-OprM
Summary of the method: as §2

P. aeruginosa ATCC 35151 = assay: Broth microdilution MIC in CAMHB; type: cell-based; details: Pseudomonas aeruginosa, ATCC35151; MHB; hyper-permeable strain; read-out: Minimum Inhibitory Concentration, P. aeruginosa ATCC 35151
Summary of the method: as §2

P. aeruginosa PAO1 = assay: Broth microdilution MIC in CAMHB; type: cell-based; details: Pseudomonas aeruginosa, MHB, read-out: Minimum Inhibitory Concentration, P. aeruginosa PAO1
Protocol: To determine the ability of test compounds to inhibit the growth of bacterial strains, classic cell based broth microdilution minimum inhibitory concentration (MIC) assays were employed. MIC assays are performed according to CLSI methods except where otherwise noted (CLSI, 2018 and CLSI, 2019). The reference type strain E. coli ATCC 25922; the wild-type parent strain E. coli AG100; the hyper-permeable E. coli 901C and E. coli D22; and the E. coli AG100A strain lacking the acrAB efflux pump encoding genes were used to determine the ability of the PBP inhibitors to penetrate the outer membrane of gram-negative bacteria and inhibit bacterial growth. […] The P. aeruginosa ATCC 27853 and A. baumannii ATCC 19606, along with the hyper-permeable P. aeruginosa ATCC 35151 and an engineered efflux pump-compromised strain of P. aeruginosa (ΔmexAB-oprM) were used to determine the ability of PBP inhibitors to penetrate the outer membrane of P. aeruginosa and A. baumannii and assess antibacterial activity against these important gram-negative organisms.
Briefly, cryo-preserved bacterial cultures of challenge strains are streaked for isolation on appropriate agar medium, in this case cation-adjusted Mueller Hinton agar. Following incubation to allow growth of the colonies, plates are sealed with parafilm and stored refrigerated for up to two weeks. For preparation of assay inoculum and to ensure low variability, at least 5 colonies are picked from the agar plates with an inoculating loop and aseptically transferred to a culture tube containing 3 mL of cation-adjusted Mueller Hinton broth (CAMHB). The broth culture is grown for 3-5 hours at 37° C. with shaking at 200 rpm. Meanwhile, 2-fold serial dilutions of test compounds are conducted in a 96-well plate with a final volume of 75 μL per well at 2-fold the final desired concentration. After the dilution plates are set up the growing cultures are then diluted in a cuvette containing CAMHB and the optical density is measured at 600 nm. The inoculum is diluted such that 75 μL of this culture in CAMHB results in a starting bacterial concentration of 2-8×10^5 CFU/mL when added to the dilution plates. The plates are incubated for 16-20 hours for Enterobacteriaceae and Pseudomonas and 20-24 hours for Acinetobacter at 37° C. The MIC values are read visually as the lowest concentration well with no bacterial growth.

E. coli K12 PBP4 = molecular target: T3, E. coli K12 PBP4 (Escherichia coli, UniProt P24228); assay: Bocillin-FL fluorescence polarization competition binding assay, E. coli PBP4; details: E. coli PBP4; assay validation with beta-lactams; read-out: EC50 (concentration of beta-lactam required to reduce the amount of PBP bound-Bocillin-FL by 50%)
T3 construct: made in house
From the text: (§3) Example I: Experimental Method for Penicillin-Binding Protein Binding Assays with Bocillin-FL Via Fluorescence Polarization
To determine the ability of boronic acid-based test PBP inhibitors to bind Penicillin Binding Proteins (PBPs), Bocillin-FL (fluorescently-labeled penicillin V; ThermoFisher Scientific) was used in a fluorescence polarization (FP) competition binding assay to assess inhibitor binding to PBP2, PBP3 or PBP4 from Escherichia coli (K12), PBP3 from Pseudomonas aeruginosa (PA01), PBP1a, PBP2 and PBP3 from Acinetobacter baumannii (ATCC 19606), and PBP2 from Neiserria gonorrheae (FA19). PBPs were cloned and purified as described previously (E. coli PBPs, King, D. T, et al., ACS Infectious Diseases 2015, 1, 175-184; P. aeruginosa PBP3, Han et. al., PNAS 2010, 107 (51), 22002-22007; A. baumannii PBPs, Penwell et. al., Antimicrob. Agents Chemother. 2015, 59 (3), 1680-1689; N. gonorrhoeae PBP2, Singh et. al., J Biol. Chem. 2019, 294 (38), 14020-14032). To establish assay conditions for competition binding, enzyme titration/saturation binding experiments were initially performed. Bocillin-FL was prepared at 0.2 μM in a buffer comprised of 50 mM Hepes (pH 8.0), 300 mM NaCl and 5% (v/v) glycerol for reactions with E. coli, P. aeruginosa and N. gonorrhoeae PBPs, and 25 mM Tris (pH 8.0), 200 mM NaCl and 10% (v/v) glycerol and 0.005% (v/v) Tween 20 for reactions with A. baumannii PBPs. Saturation binding was performed by mixing 40 μl of PBP solutions ranging in concentrations from 0-24 μM with 40 μl of the 0.2 μM Bocillin-FL solution, in individual wells of a black 384-well microplate. FP was measured immediately upon mixing (Excitation, 490 nm; Emission, 520 nm; g-factor, 0.96), using a Cytation3 (BioTek) microplate reader and measured continuously for up to 120 minutes. […] Bocillin-FL was added and the FP immediately measured for up to 60 minutes (90 minutes for E. coli PBP2). […]

A. baumannii PBP1a = A. baumannii PBP1a (Acinetobacter baumannii, UniProt A0ABX6CK30); assay: Bocillin-FL fluorescence polarization competition binding assay, A. baumannii PBP1a
From the text: as §3
To determine the ability of boronic acid-based test PBP inhibitors to bind Penicillin Binding Proteins (PBPs), Bocillin-FL (fluorescently-labeled penicillin V; ThermoFisher Scientific) was used in a fluorescence polarization (FP) competition binding assay to assess inhibitor binding to PBP2, PBP3 or PBP4 from Escherichia coli (K12), PBP3 from Pseudomonas aeruginosa (PA01), PBP1a, PBP2 and PBP3 from Acinetobacter baumannii (ATCC 19606), and PBP2 from Neiserria gonorrheae (FA19). PBPs were cloned and purified as described previously (E. coli PBPs, King, D. T, et al., ACS Infectious Diseases 2015, 1, 175-184; P. aeruginosa PBP3, Han et. al., PNAS 2010, 107 (51), 22002-22007; A. baumannii PBPs, Penwell et. al., Antimicrob. Agents Chemother. 2015, 59 (3), 1680-1689; N. gonorrhoeae PBP2, Singh et. al., J Biol. Chem. 2019, 294 (38), 14020-14032). To establish assay conditions for competition binding, enzyme titration/saturation binding experiments were initially performed. Bocillin-FL was prepared at 0.2 μM in a buffer comprised of 50 mM Hepes (pH 8.0), 300 mM NaCl and 5% (v/v) glycerol for reactions with E. coli, P. aeruginosa and N. gonorrhoeae PBPs, and 25 mM Tris (pH 8.0), 200 mM NaCl and 10% (v/v) glycerol and 0.005% (v/v) Tween 20 for reactions with A. baumannii PBPs. Saturation binding was performed by mixing 40 μl of PBP solutions ranging in concentrations from 0-24 μM with 40 μl of the 0.2 μM Bocillin-FL solution, in individual wells of a black 384-well microplate. FP was measured immediately upon mixing (Excitation, 490 nm; Emission, 520 nm; g-factor, 0.96), using a Cytation3 (BioTek) microplate reader and measured continuously for up to 120 minutes. […] The competition binding assay (80 μl final volume) was validated using beta-lactams and PBPs at final concentrations of: 1.5 μM, E. coli PBP3; 0.75 μM, P. aeruginosa PBP3; 1 μM A. baumannii PBP1a; 2.5 μM A. baumannii PBP2; 0.2 μM A. baumannii PBP3; and […] N. gonorrhoeae PBP2. Bocillin-FL was at 0.1 μM (0.05 μM with A. baumannii PBP1a) and beta-lactam concentrations ranged from 0-1000 μM. […] Bocillin-FL was added and the FP immediately measured for up to 60 minutes (90 minutes for E. coli PBP2). […] The beta-lactam potency was reported as the concentration of beta-lactam required to reduce the amount of PBP bound-Bocillin-FL by 50% (EC50). […] Binding assays for boronic acid PBP inhibitors were performed in an identical fashion for the respective PBPs

A. baumannii PBP3 = A. baumannii PBP3 (Acinetobacter baumannii, UniProt A0ABX6CK25); assay: Bocillin-FL fluorescence polarization competition binding assay, A. baumannii PBP3
Summary of the method: as §1

SMILES | EC50 (E. coli K12 PBP3) [nM] | P. aeruginosa PBP3 Potency (P. aeruginosa PBP3) | MIC (A. baumannii ATCC 19606) [µg/mL] | MIC (E. coli 901C) [µg/mL] | MIC (E. coli AG100A) [µg/mL] | MIC (E. coli AG100) [µg/mL] | MIC (E. coli ATCC 25922) [µg/mL] | MIC (E. coli D22) [µg/mL] | MIC [1] [µg/mL] | MIC [2] [µg/mL] | MIC [3] [µg/mL] | MIC [4] [µg/mL] | MIC (P. aeruginosa ATCC 35151) [µg/mL] | MIC (P. aeruginosa PAO1) [µg/mL] | EC50 (E. coli K12 PBP4) [nM] | EC50 (A. baumannii PBP1a) [nM] | EC50 (A. baumannii PBP3) [nM]
CCN1CCN(C(=O)NC(C(=O)N[C@H]2Cc3ccc(C(F)(F)F)c(C(=O)O)c3OB2O)c2csc(N)n2)C(=O)C1=O (stereo partly drawn) [Example 63, (3R)-3-(2-(2-aminothiazol-4-yl)-2-(4-ethyl-2,3-dioxopiperazine-1-carboxamido)acetamido)-2-hydroxy-7-(trifluoromethyl)-3,4-dihydro-2H-benzo[e][1,2]oxaborinine-8-carboxylic acid] | > 500000 | B (B represents a potency between 30 μM and 500 μM inclusive) | > 128 | 8 to 16 (≈ 13.4 to 26.7 µM) | > 128 | > 128 | > 128 | > 128 | > 128 | > 128 | > 128 | > 128 | 8 to 16 (≈ 13.4 to 26.7 µM) | > 128 |  |  | 
C[C@@H](O)[C@H]1C(=O)N2C(C(=O)O)=C(S[C@@H]3CN[C@H](C(=O)N(C)C)C3)[C@H](C)[C@H]12 [meropenem, reference compound] |  |  |  |  |  |  |  |  |  |  |  |  |  |  | < 2000 | 230 | 230
